Assay results from ChEMBL document CHEMBL1201862, “PubChem BioAssay data set” (2004).
Where “and” joins values, the source holds several entries; their conditions need not be identical. Equal entries are not always repeated.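 Cultured in 96-well plates, cells were exposed to test compound for 48 hours across five concentrations. At the GI50, growth is halved.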 Calls of active or inactive are those of the source. No stated cut-off is given here; in the data, active = GI50 up to about 1.1 µM and inactive = higher.

Legend:
Assay in all cases: inhibition of tumour cell growth, NCI panel, 48 h
COLO 205 = tested on: COLO 205
DLD-1 = tested on: DLD-1
HCC 2998 = tested on: HCC 2998
HL-60 = tested on: HL-60
HOP-92 = tested on: HOP-92
IGROV-1 = tested on: IGROV-1
LOX IMVI = tested on: LOX IMVI
NCI-H460 = tested on: NCI-H460
NCI-H522 = tested on: NCI-H522
SF-539 = tested on: SF-539
SK-MEL-5 = tested on: SK-MEL-5
SN12C = tested on: SN12C
SNB-19 = tested on: SNB-19
SNB-78 = tested on: SNB-78
UACC-62 = tested on: UACC-62
M14 = tested on: M14
NCI-H23 = tested on: NCI-H23
SR = tested on: SR
UACC-257 = tested on: UACC-257
CAKI-1 = tested on: CAKI-1

Compound	GI50 (COLO 205)	GI50 (DLD-1)	GI50 (HCC 2998)	GI50 (HL-60)	GI50 (HOP-92)	GI50 (IGROV-1)	GI50 (LOX IMVI)	GI50 (NCI-H460)	GI50 (NCI-H522)	GI50 (SF-539)	GI50 (SK-MEL-5)	GI50 (SN12C)	GI50 (SNB-19)	GI50 (SNB-78)	GI50 (UACC-62)	GI50 (M14)	GI50 (NCI-H23)	GI50 (SR)	GI50 (UACC-257)	GI50 (CAKI-1)
CCCCCCCCCCSCC(CO)NC(=O)/C=C/c1c(C)[nH]c(=O)[nH]c1=O (stereo not drawn)	762 nM (active) and 1.19 µM (inactive)	1.44 µM (inactive) and 1.38 µM (inactive)	1.08 µM (active) and 1.17 µM (inactive)	1.82 µM (inactive) and 1.42 µM (inactive)	1.54 µM (inactive) and 820 nM (active)	2.43 µM (inactive) and 2.48 µM (inactive)	1.29 µM (inactive) and 1.42 µM (inactive)	1.51 µM (inactive) and 1.76 µM (inactive)	243 nM (active) and 393 nM (active)	1.46 µM (inactive) and 1.41 µM (inactive)	1.16 µM (inactive) and 1.36 µM (inactive)	1.37 µM (inactive) and 1.09 µM (active)	881 nM (active) and 925 nM (active)	1.71 µM (inactive) and 1.9 µM (inactive)	1.03 µM (active) and 1.17 µM (inactive)					
COc1cccc(N2C(=O)CSC2c2c[nH]c3ccccc23)c1 (stereo not drawn)	> 100 µM (inactive)		> 100 µM (inactive)	> 100 µM (inactive)	66.1 µM (inactive)	> 100 µM (inactive)	> 100 µM (inactive)	> 100 µM (inactive)	97.9 µM (inactive)		> 100 µM (inactive)	> 100 µM (inactive)	> 100 µM (inactive)		> 100 µM (inactive)	> 100 µM (inactive)	> 100 µM (inactive)	> 100 µM (inactive)	> 100 µM (inactive)	
CCOC1=NC(C(F)(F)F)(C(F)(F)F)N=C(N2CCOCC2)O1	> 100 µM (inactive)		> 100 µM (inactive)	89.5 µM (inactive)	> 100 µM (inactive)	> 100 µM (inactive)	> 100 µM (inactive)	> 100 µM (inactive)	> 100 µM (inactive)	> 100 µM (inactive)	> 100 µM (inactive)	> 100 µM (inactive)	> 100 µM (inactive)		24 µM (inactive)	> 100 µM (inactive)	> 100 µM (inactive)	> 100 µM (inactive)	> 100 µM (inactive)	> 100 µM (inactive)
CCOC(=O)c1ncoc1[C@H]1COC(C)(C)O1		> 100 µM (inactive)	> 100 µM (inactive)	> 100 µM (inactive)		> 100 µM (inactive)	> 100 µM (inactive)	> 100 µM (inactive)	> 100 µM (inactive)	> 100 µM (inactive)	> 100 µM (inactive)	> 100 µM (inactive)	> 100 µM (inactive)	> 100 µM (inactive)	> 100 µM (inactive)	> 100 µM (inactive)	> 100 µM (inactive)	> 100 µM (inactive)	> 100 µM (inactive)	> 100 µM (inactive)
Cc1ccc(NC(=O)CC/C(CC(=O)C(C)(C)C)=N/NC(=O)c2cc3ccccc3cc2O)cc1C	39.1 µM (inactive)	30 µM (inactive)	29.2 µM (inactive)	20.4 µM (inactive)	47.6 µM (inactive)	32.8 µM (inactive)	20.3 µM (inactive)	39.4 µM (inactive)				33.6 µM (inactive)	39.5 µM (inactive)	60.5 µM (inactive)	24.5 µM (inactive)	32.5 µM (inactive)	19.6 µM (inactive)		38.1 µM (inactive)	> 100 µM (inactive)
